Data reported in patent US20040138312A1, “Methods for the treatment of neurodegeneration” (priority 2002, published 2004).

Assays:
Format in all cases: in vivo, C57B1/B6 type mice
MPTP-treated mice [1] = experiment: Tail Hanging test (forelimb placement) in MPTP-treated mice; details: during the period that the compound is administered; 3 mg/kg/day s.c. mini-pump
From the text: Mice are hung by their tails 3 times each, for approximately 10 seconds each time. Each mouse is hung by the base of its tail about 30 cm above the surface of a table until the mouse turns either left or right. A left turn is given a score of 0 and a right turn is given a score of 1.
Forelimb placement is also noted during tail hanging. The placement of the limbs is given a score on a 4 point scale. Extended limbs, or those placed above the head are given a score of 0. Limbs which are clasped or held against the body are given a score of 3. Scores of 1 or 2 are assigned for relative stages between the two extremes. Hindlimb placement is also scored as below.
(§1) Mice that receive systemic injections of the pyridine toxin 1-methyl-4-phenyl-1,2,3,6-tetrahydropyridine (MPTP) selectively lose large numbers of dopaminergic neurons in the substantia nigra (SN) and the ventral tegmental area (VTA). Loss of dopamine cells in the SN mimics the clinical condition seen in Parkinson's disease. Loss of such cells in the VTA may contribute to the cognitive deficits seen in Parkinson's and Alzheimer's disease, due to these neurons' projections into the frontal cortex.
(§2) 50 C57B1/B6 type mice (8-12 weeks old) are allowed to acclimate for 12-14 days before experimental use. The mice are then randomly assigned to the following groups: MPTP plus DMSO vehicle; vehicle alone, MPTP plus brimonidine (3 mg/kg/day), MPTP plus AGN 197075 (3 mg/kg/day), and MPTP plus AGN 196923 (3 mg/kg/day)).
In the presently described assays, each mouse is then given an initial Open-Field test and a Tail Hanging test. The Open Field test is the most frequently used behavioral assay of MPTP-treated mice, and appears to be sensitive to loss of dopaminergic input from the substantia nigra. The Tail-Hanging test is sensitive to direct striatal damage; the Nest Building test is sensitive to loss of striatal input from the frontal cortex. […]
(§3) For all behavioral tests, the results are first analyzed using a repeated measures ANOVA, following by tests of the between groups effect using Fisher's HSD method.

[2] = tested on: dopaminergic neurons in the substantia nigra (SN); experiment: Neuron counting (tyrosine hydroxylase-labeled cells) in substantia nigra of MPTP-treated mice; details: for Neuron loss in the substantia nigra versus MPTP-treated animals: 3 mg/kg/day s.c. mini-pump 14 days, 55-60 days post MPTP; for Average Neuron Count (statistical error): substantia nigra, 3 mg/kg/day s.c. mini-pump 14 days + MPTP 40 mg/kg s.c., Control 60, Vehicle + MPTP 25
From the text: (§4) Between 55 and 60 day post MPTP injection, the mice are sacrificed using sodium nembutol. Mouse brains are perfused with phosphate buffered saline followed by Lana's fixative (paraformaldehyde and picric acid). The brains are removed and placed in Lana's fixative for 7 to 10 days. The brains are then sectioned coronally at 50 micrometers using a vibratome. And the sections stained with an antibody to tyrosine hydoxylase, the rate limiting enzyme in dopamine synthesis. The section was then examined under microscope at 100× magnification. Tissue slices (−2.9 mm and −3.6 mm posterior to Bregma were selected for cell counting in the SN and VTA. These sections are at the midpoint of the rostral half and the midpoint of the cauldual half of SN, respectively. Each TH-labeled cell that is clearly visible that has between 2 and 6 neurites is considered a neuron. An overall average count for each animal is calculated from the four sections (rostral and caudal, left and right). An average is obtained for the four sections. Separate analyses are performed on the neuron counts from SN and VTA. These counts are analyzed using a repeated measures ANOVA, following by tests of the between groups effect using Fisher's HSD method.
as §1, §2
Four out of the 5 groups of mice receive an infusion of a test compound (or of vehicle containing no compound). These infusions are administered via subcutaneous implanted osmotic mini-pump over a 14 day period at a flow of 0.25 microliters/hour. Three days following implantation of the pumps, the mice are given the Open Field and Tail Hanging tests, along with the group of control mice, who are not implanted with mini-pumps. Immediately following the tests, the pump containing mice were given a 40 mg/kg injection of MPTP subcutaneously. All groups are then given the Open Field and Tail Hanging tests at 10-12 days and 30-40 days following MPTP treatment. The Open Field, and Tail Hanging tests are given at 50-55 days post MPTP treatment.

[3] = tested on: dopaminergic neurons in the ventral tegmental area (VTA); experiment: Neuron counting (tyrosine hydroxylase-labeled cells) in ventral tegmental area of MPTP-treated mice; details: 3 mg/kg/day s.c. mini-pump 14 days; MPTP alone 28% fewer neurons than Control
From the text: as §4, §1
as §2, with “mg/kg/day)). […]” for “mg/kg/day)).”

MPTP-treated mice [4] = experiment: Open-Field test in MPTP-treated mice; details: for Open field activity compared with the vehicle group: 3 mg/kg/day s.c. osmotic mini-pump 14 days
Description: Each animal is placed in a clear plastic open field box with two rows of photo-beams mounted on the sides to distinguish be5tween horizontal (i.e. distance traveled) and vertical (i.e. “rears”) movements. Ambient conditions are low noise and dim lighting. The animal's movements within the box are measured for 5 minutes, and calculated from records of the number and type of “beam-breaks” or photo-beam crossings. On the last Open Field test, only rears are counted, and classified as either “supported” or “unsupported”. Supported rears are when an animal places at least one forelimb on the side wall of the box when a rear is recorded. In an unsupported rear the mouse is supported solely by hindlimbs. These rears are distinguished by videorecording. The number of unsupported rears is the most reliable measure of dopamine neuron loss in this test.
as §1, §2
In the presently described assays, each mouse is then given an initial Open-Field test and a Tail Hanging test. […]
as §3

Compound | Impairment of forelimb extensions (tail hang test) (MPTP-treated mice [1]) | Neuron loss in the substantia nigra versus MPTP-treated animals [2] | Average Neuron Count (statistical error) [2] | Reduction of MPTP-induced neuron loss in the Ventral Tegmental area [3] | Open field activity compared with the vehicle group (MPTP-treated mice [4]; 10 days post MPTP) | Number of unsupported rears compared with vehicle (MPTP-treated mice [4]; 3 mg/kg/day s.c. mini-pump, 50-60 days post MPTP treatment) | Open field activity compared with the vehicle group (MPTP-treated mice [4]; 10 and 30 days post MPTP (40 mg/kg s.c.))
CCC1=CC(Cc2c[nH]cn2)CCC1 (stereo not drawn) [AGN 196923] | no such trend | significantly less neuron loss | 35 (±2) | about 10% | significant reduces the amount of activity |  | 
OCCNC(=S)NCc1cccc(Cl)c1F [AGN 197075] | significantly reduces this impairment | significantly less neuron loss | 37 (±2) | about 10% |  | significantly more unsupported rears | 
Brc1c(NC2=NCCN2)ccc2nccnc12 [brimonidine, reference compound] | no such trend | significantly less neuron loss | 32 (±1) | about 10% |  |  | no alteration in this increase of activity
